How the values were obtained:
human LXRα-LBD = molecular target: T1, human LXRα-LBD (Homo sapiens, UniProt Q13133); experiment: Lantha Screen TR-FRET NR-cofactor peptide interaction assay; format: biochemical
T1 construct: Purified human LXRα-LBD (GST); purchased Life Technologies
T1 sequence (Q13133 209-447 limits assumed): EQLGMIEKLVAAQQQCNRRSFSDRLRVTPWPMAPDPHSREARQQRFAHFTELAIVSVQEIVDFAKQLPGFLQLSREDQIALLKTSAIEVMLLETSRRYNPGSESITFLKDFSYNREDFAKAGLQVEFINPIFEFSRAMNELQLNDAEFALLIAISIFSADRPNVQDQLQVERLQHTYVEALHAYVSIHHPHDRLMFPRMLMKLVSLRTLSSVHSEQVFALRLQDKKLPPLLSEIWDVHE
Experimental: Biochemical NR—Cofactor Peptide Interaction Assay (TR-FRET) Assay (Life Technologies kit). Purified human LXRα-LBD (GST), LXRβ-LBD (GST), fluoroscein (FL)-labeled peptides, terbium (TB)-labeled anti-GST tag antibody, and all buffers were purchased from Life Technologies. All LXR assays were conducted in 384-well black medium-binding polystyrene assay plates (Greiner Bio-One). Test compound stock solutions and subsequent serial dilutions were prepared at 100× the final concentration in DMSO, and then were diluted to the final assay concentration of 2× in assay buffer and dispensed into assay plates. LXR-LBDs were added to assay plates and then a mixture of FL-peptide/TB-anti-GST was added to each well containing either a test compound or DMSO control for final concentrations of 2.5 nM LXRα-LBD, 5 nM LXRβ-LBD, 10 nM TB-anti-GST, and 250 nM FL-peptide. Assay plates were protected from light and incubated with gentle shaking for 3.5 hours at room temperature. The TR-FRET ratio (520 nm/492 nm) of each assay well was measured using the Perkin Elmer EnVision plate reader. An excitation filter at 340 nm was used to excite the TB-anti-GST and emission filters 492 nm and 520 nm were used to detect terbium and fluorescein emission signals respectively. A delay of 100 μs followed by a 200 μs integration time was used to collect the time-resolved emission signals.
The assay is identical except we use His-tagged LXR (made in house) and TB-labeled anti-His antibody (Life Technologies). FL-labeled peptides (Life Technologies) are: • NCOR-ID1 NCOR-ID2 SMRT SRC1-2 SRC2-3 TRAP/DRIP

[1] = test system: lung and breast tumor bearing mice; experiment: Tumor specific immune response in tumor bearing mice (FIG. 1B); format: in vivo
dendritic cell = experiment: Cultured dendritic cell chemokine expression (FIG. 1A); format: cell-based; conditions: cultured dendritic cells

Compound | IC50 (human LXRα-LBD) [µM] | further results
COC(=O)C1Cc2cc(-c3cccc(S(C)(=O)=O)c3)ccc2CN1S(=O)(=O)c1c(C)cc(C)cc1C (stereo not shown) [Compound 3, methyl 2-(mesitylsulfonyl)-6-(3-(methylsulfonyl)phenyl)-1,2,3,4-tetrahydroisoquinoline-3-carboxylate] | 5 | –
Cc1cc(C)c(S(=O)(=O)N2Cc3ccc(-c4cccc(S(C)(=O)=O)c4)cc3CC2C(=O)NCc2ccc(C#N)cc2)c(C)c1 (stereo not shown) [Compound 5, N-(4-cyanobenzyl)-2-(mesitylsulfonyl)-6-(3-(methylsulfonyl)phenyl)-1,2,3,4 tetrahydroisoquinoline-3-carboxamide] | 8.3 | –
Cc1cc(C)c(S(=O)(=O)N2Cc3ccc(-c4cccc(S(C)(=O)=O)c4)cc3CC2C(=O)NCc2cccc(C#N)c2)c(C)c1 (stereo not shown) [Compound 12] | 0.02 | –
Cc1cc(C)c(S(=O)(=O)N2Cc3ccc(-c4cccc(S(C)(=O)=O)c4)cc3CC2C(=O)NCCc2cccc(C#N)c2)c(C)c1 (stereo not shown) [Compound 14] | 2.1 | –
Cc1cc(C)c(S(=O)(=O)N2Cc3ccccc3CC2C(=O)NCCc2cccc(C#N)c2)c(C)c1 (stereo not shown) [Compound 38] | 0.661 | –
COc1ccc(-c2ccc3nc(NS(=O)(=O)c4c(C)cc(C)cc4C)ccc3c2)cc1 [Compound 104] | 4.3 | –
O=C(Nc1ccc2cc(Br)ccc2n1)c1cccc(Cl)c1 [Compound 113] | 5.2 | –
Cc1cc(C)c(S(=O)(=O)N(CCc2cccc(Br)c2)Cc2ccc(-c3cccc(S(C)(=O)=O)c3)cc2)c(C)c1 [SR9243] | – | cytotoxic T-cell activity [1]: induces; dendritic cell activity [1]: induces; inhibition of dendritic cell chemokine expression by LXR agonists and tumor specific LXR ligands (dendritic cell): disrupted

Source: US11746097B2, “LXR inverse agonists for treatment of cancer” (Saint Louis University, priority 2016, dated 2023)
